{"source": "patent US9532569B2", "about": "(INSTITUT NATIONAL DE LA RECHERCHE AGRONOMIQUE, priority 2012, dated 2017)", "key": {"pea rms1 mutants": {"test_system": "pea rms1 mutants", "assay": "Hydroponic culture test in pea", "format": "in vivo, Pisum sativum L.", "details": "1 μM in hydroponic culture solution, 8 days", "experimental": "For this example, ramosus (rms1) hyperbranched pea (Pisum sativum L.) mutants were used.\nMore particularly, rms1 (rms1-10) hyperbranched mutant plants were used. The nutritive solution (100%) was prepared by adding the following macronutrients to 1000 l of water: HNO3 (0.28 l), (NH4)2HPO4 (120 g), Ca(NO3)2 (40 g), Mg(NO3)2 (140 g), KNO3 (550 g), (NH4)2MoO4 (0.05 g), H3BO3 (15 g), MnSO4.H2O (2 g), ZnSO4.7H2O (1 g), CuSO4.5H2O (0.25 g), Sequestrene® (10 g) (Fe-EDTA solution). The pea seeds were germinated in moist sand for 6 days, then placed in holes of a lid (35 holes/lid, 20 mm in diameter) of an opaque PVC pot containing the hydroponic culture solution (47 l, pH 5.8).\nIn a first experiment, acetone or the compound to be tested (dissolved in acetone) was added to the hydroponic culture solution so as to obtain a final concentration of 0 or 1 μM of compound to be tested and 0.01% of acetone.\nThe hydroponic culture solution was continually aerated by means of an aquarium pump and replaced each week. 8 days after the start of the treatment, the lengths of bud/branch (nodes 1 to 6) were measured with an electronic sliding caliper.\nThis experiment was carried out for the compounds according to the invention (IIa) and (IIIb), and also the GR24 compound as comparative compound. A negative control (<<CTL 0>>), corresponding to a treatment with the solvent alone, was also carried out.\nThe results (mean data on 20 plants), in terms of, on the one hand, length of the branches at nodes 3 to 5 and, on the other hand, plant height, are shown respectively in FIGS. 11 and 12.\nThe same experiment was carried out for the compound in accordance with the invention (II″g) and the comparative compound GR24. Dimethyl sulfoxide (DMSO) or the compound to be tested, dissolved in DMSO, was added to the hydroponic culture solution so as to obtain a final concentration of 0 or 3 μM of compound to be tested and 0.01% of DMSO.\nThe results (mean data on 10 to 12 plants), in terms, on the one hand, of length of the branches at nodes 3 to 4 and, on the other hand, of plant height, are shown respectively in FIGS. 13 and 14."}, "Phelipanche ramosa pv C": {"test_system": "Phelipanche ramosa pv C", "assay": "Germinative activity on parasitic plants", "format": "in vivo", "details": "counted after 4 days", "experimental": "(§1) In this example, the germinative activity of the compounds in accordance with the invention (IIa) and (IIIb) and of the comparative compound GR24 was evaluated on the parasitic plants: Orobanche cumana, Orobanche minor, Striga hermonthica, Phelipanche ramosa (pv T and pv C).\n(§2) The test protocol used was the following.\n(§3) Two populations of Phelipanche ramosa were used in this study, pathovar (pv) C and T, described in the publication by Benharrat et al. (2005). Seeds of Phelipanche ramosa pathovar C were collected at Saint Martin de Fraigneau, France, on broomrapes parasitizing winter oilseed rape (Brassica napus L.) in 2005 and seeds of Phelipanche ramosa pathovar T were collected in Sarthe, France, on broomrapes developing on hemp (Cannabis sativa L.) in 2007.\n(§4) The seeds are stored dry in the dark at 25° C.\n(§5) The compounds to be studied were resuspended in acetone at 10 mmol·l^−1, then diluted with water to 1 mmol·l^−1 (water/acetone; v/v; 99/1). Dilutions of 1×10^−3 mol·l^−1 to 1×10^−15 mol·l^−1 were then prepared in a water/acetone mixture (v/v; 99/1). Seeds of parasitic plants were surface-sterilized according to the protocol described in the publication by Vieira Dos Santos et al. (2003), then resuspended in sterile water (10 g·l^−1) and distributed on a 96-well plate (in a proportion of 50 μl, i.e. approximately 100 seeds per well). After preconditioning (7 days, 21° C., in the dark, plate hermetically sealed, except for the seeds of S. hermonthica, which were preconditioned at 30° C.), the compounds to be studied were added and the volumes adjusted to 100 μl with water (water/acetone; v/v; 999/1).\n(§6) In a plate, a range of concentrations from 10^−13 mol·l^−1 to 10^−6 mol·l^−1 was applied for GR24 and (IIa) and from 10^−12 to 10^−5 mol·l^−1 for (IIIb). Controls were carried out with a water/acetone mixture (v/v; 999/1) and without seeds. The plates were incubated so as to allow germination (21° C., in the dark or 30° C. for Striga hermonthica.). After 4 days, the seeds which had germinated were counted under a stereomicroscope (SZX10, Olympus). The seeds were considered to have germinated when the radicle was sticking out of the seed tegument. Each germination test was repeated at least 3 times. For each compound tested, dose-response curves (g=f(c), where g is the germination percentage and c the concentration (mol·l^−1)), and the EC50 (median effective concentration) were modeled on the basis of a 4-parameter logistic curve calculated with SigmaPlot® 10.0.\n(§7) The percentages of maximum germination induced by the compounds tested for each parasitic plant were determined."}, "Phelipanche ramosa pv T": {"test_system": "Phelipanche ramosa pv T", "assay": "Germinative activity on parasitic plants", "format": "in vivo", "details": "counted after 4 days", "experimental": "as §1, §2, §3, §4, §5, §6, §7"}, "Striga hermonthica": {"test_system": "Striga hermonthica", "assay": "Germinative activity on parasitic plants", "format": "in vivo", "details": "counted after 4 days, 30° C.", "experimental": "as §1, §2\nSeeds of Striga hermonthica (Del.) Benth were collected at Gadarif, Eastern Sudan, in 1999.\nas §4, §5\nas §6, with “The seeds were considered to have germinated when the radicle was sticking out of the seed tegument. Each germination test was repeated at least 3 times.” left out\nas §7"}, "Orobanche cumana": {"test_system": "Orobanche cumana", "assay": "Germinative activity on parasitic plants", "format": "in vivo", "details": "counted after 4 days", "experimental": "as §1, §2\n(§8) Seeds of Orobanche cumana Wallr. were collected from broomrapes parasitizing sunflower (Helianthus annuus L.), at Longeville-sur-mer, France, in 2009; seeds of clover broomrape (Orobanche minor Sm.) from a parasite of red clover (Trifolium pratense L.) were obtained from Professor K. Yoneyama (Utsunomiya University, Japan).\nas §4, §5, §6, §7"}, "Orobanche minor": {"test_system": "Orobanche minor", "assay": "Germinative activity on parasitic plants", "format": "in vivo", "details": "counted after 4 days", "experimental": "as §1, §2, §8, §4, §5, §6, §7"}}, "data": [{"smiles": "CC1=C(C)C(Sc2ccc(Cl)cc2)OC1=O", "note": "(stereo not shown) [Compound (IIa), 5-((4-chlorophenyl)thio)-3,4-dimethylfuran-2(5H)-one]", "values": [{"measurement": "length of the branches at nodes 3 to 5", "setting": "pea rms1 mutants; FIG. 11", "result": "activity of the compounds in accordance with the invention (IIa) and (IIIb) on all the branches of nodes 3 to 5"}, {"measurement": "plant height", "setting": "pea rms1 mutants; FIG. 12", "result": "significant effect on plant height is also demonstrated, comparable between the comparative compound GR24 and the compound in accordance with the invention (IIa)"}, {"measurement": "Percentage of maximum germination induced", "setting": "Phelipanche ramosa pv C", "result": "27 ± 4", "unit": "%"}, {"measurement": "Percentage of maximum germination induced", "setting": "Phelipanche ramosa pv T", "result": "72 ± 2", "unit": "%"}, {"measurement": "Percentage of maximum germination induced", "setting": "Striga hermonthica", "result": "no (no significant germination compared to the negative control (<2%))"}, {"measurement": "Percentage of maximum germination induced", "setting": "Orobanche cumana", "result": "no (no significant germination compared to the negative control (<2%))"}, {"measurement": "Percentage of maximum germination induced", "setting": "Orobanche minor", "result": "no (no significant germination compared to the negative control (<2%))"}]}]}
